Data published in patent US5912266A, “Beta2 integrin cell adhesion molecule inhibitors” (American Home Products Corporation, priority 1997, dated 1999).
Values joined by “and” are separate entries in the source; they are usually repeats but may differ in a detail not shown here. Identical values can stand only once.

Biological target: T1, E-selectin (Homo sapiens, UniProt P16581)
T1 construct: calcein-labelled HL60 cells adhere
T1 sequence (P16581 22-556 limits assumed): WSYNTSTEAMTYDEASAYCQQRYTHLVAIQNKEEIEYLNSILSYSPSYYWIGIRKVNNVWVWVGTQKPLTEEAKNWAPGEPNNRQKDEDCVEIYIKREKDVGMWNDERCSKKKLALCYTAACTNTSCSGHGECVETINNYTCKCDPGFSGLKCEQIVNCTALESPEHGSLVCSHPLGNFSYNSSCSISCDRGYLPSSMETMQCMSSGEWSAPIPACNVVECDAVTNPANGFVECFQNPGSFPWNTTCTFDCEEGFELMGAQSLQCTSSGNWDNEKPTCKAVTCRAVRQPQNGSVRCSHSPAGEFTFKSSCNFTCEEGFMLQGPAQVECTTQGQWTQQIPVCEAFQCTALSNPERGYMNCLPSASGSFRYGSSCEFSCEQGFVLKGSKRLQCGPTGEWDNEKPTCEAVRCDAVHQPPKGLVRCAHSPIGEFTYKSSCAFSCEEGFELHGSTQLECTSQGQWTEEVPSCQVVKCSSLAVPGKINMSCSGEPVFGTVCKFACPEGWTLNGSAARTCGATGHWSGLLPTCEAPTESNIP
Test: Adhesion of HL60 cells to recombinant, soluble, human E-selectin
Type: cell-based
Settings: for Percent Cells Bound: single well
Procedure: rsE-selectin was prepared and purified using standard molecular biology techniques. HL60 cells were obtained from American Type Culture Collection (ATCC) and maintained in culture media, as described in Example I, except that cells could be used in the assay at any passage number. Other materials required for the assay are as described in Examples I and II.
200 ng of purified, recombinant, soluble E-selectin contained in 100 μl of dPBS was added to wells of a flat bottom 96 well EIA/RIA plate. The control wells were filled with dPBS only and the assay plate was incubated at 4° C. for at least 18 hours to allow the rsE-selectin to bind to assay wells. The rsE-selectin solution was removed from the wells of the assay plate, washed, and blocked with 1% BSA, as described in Example II.
HL60 cells were harvested from culture, washed and labeled with calcein AM as outlined in Example I, except that the concentration of calcein used to label the HL-60 cells was 12.5 μM and cells were centrifuged at 1000 rpm for 5 minutes. After the final cell wash (see Example I), the cells were resuspended in ice-cold PMN buffer to 1.0×10^5 cells/40 μl and the cells were placed in the dark at room temperature until added to the assay plate.
The asperlin solutions were prepared as described in Example I. The dPBS remaining in the wells of the assay plate was removed by inverting the plate and tapping it on paper toweling and the assay was performed as described in Example II. 100 μl of PMN buffer was added to all wells of the assay plate and the fluorescence of the adherent HL-60 cells binding to rsE-selectin was measured using a fluorescent plate reader, described in Example I. The percentage of HL60 cells binding to E-selectin and the percentage of inhibition of HL60 cell adhesion to E-selectin in the presence of asperlin were also quantitated as described in Example II.

With `CC(=O)OC1C=CC(=O)OC1C1OC1C` [Asperlin, 6,7-Anhydro-2,3,8-trideoxy-D-galacto-oct-2-enoic acidδ-lactone 4-acetate] the “Average Percent Bound” value (Asperlin 100 μg/ml) was 62%, the “Bound Cell Fluorescence” value (Asperlin 100 μg/ml) was 1412 fluorescence units/well and 1096 fluorescence units/well and the “Percent Cells Bound” value (Asperlin 100 μg/ml) was 64% and 59%. For the same molecule, the “Average Percent Bound” value (Asperlin 200 μg/ml) was 48%, the “Bound Cell Fluorescence” value (Asperlin 200 μg/ml) was 1124 fluorescence units/well and 887 fluorescence units/well and the “Percent Cells Bound” value (Asperlin 200 μg/ml) was 52% and 44%. For the same molecule, the inhibition at 100 µg/mL (HL-60, Asperlin 100 μg/ml) was -19%, the inhibition at 200 µg/mL (HL-60, Asperlin 200 μg/ml) was 8% and the “Effect on E-selectin mediated HL60 cell binding (in words)” value (summary of Table III) was “does not inhibit E-selectin mediated HL60 cell binding”.
